Where “and” joins values, the source holds several entries; their conditions need not be identical. Equal entries are not always repeated.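 Each compound was tested at five concentrations against cells in 96-well plates for 48 hours. Abbreviation: GI50, concentration required for 50% inhibition of growth. TGI is the concentration that stops growth completely.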
How the values were obtained:
Test in all cases: NCI tumour cell line growth inhibition, 48 h
A549 NSCLC = test system: A549 NSCLC
COLO 205 colon = test system: COLO 205 colon
HOP-92 NSCLC = test system: HOP-92 NSCLC
K-562 leukemia = test system: K-562 leukemia
LOX IMVI melanoma = test system: LOX IMVI melanoma
MOLT-4 leukemia = test system: MOLT-4 leukemia
OVCAR-3 ovarian = test system: OVCAR-3 ovarian
SF-268 CNS = test system: SF-268 CNS
SR leukemia = test system: SR leukemia
T-47D breast = test system: T-47D breast

SMILES | GI50 (A549 NSCLC) | TGI (A549 NSCLC) | GI50 (COLO 205 colon) [µM] | TGI (COLO 205 colon) | GI50 (HOP-92 NSCLC) [µM] | TGI (HOP-92 NSCLC) | GI50 (K-562 leukemia) | GI50 (LOX IMVI melanoma) [µM] | TGI (LOX IMVI melanoma) | GI50 (MOLT-4 leukemia) | TGI (MOLT-4 leukemia) | GI50 (OVCAR-3 ovarian) | TGI (OVCAR-3 ovarian) | GI50 (SF-268 CNS) | GI50 (SR leukemia) [µM] | TGI (SR leukemia) | GI50 (T-47D breast) | TGI (K-562 leukemia) | TGI (SF-268 CNS) | TGI (T-47D breast)
CN1CC[C@@H](c2c(O)cc(O)c3c(=O)cc(-c4ccccc4Cl)oc23)[C@@H](O)C1 | 0.0793 µM and 0.161 µM | 33.8 µM | 0.0917 | 0.223 µM and 0.116 µM | 0.104 | 0.517 µM and 1.87 µM | 0.212 µM and 0.145 µM | 0.0289 | > 100 µM | 0.0429 µM and 0.0288 µM | 0.662 µM and 0.521 µM | 0.0636 µM and 0.0375 µM and 0.0256 µM | > 19.4 µM | 0.0577 µM and 0.0288 µM | 0.014 | 0.0468 µM and 0.277 µM | 0.0824 µM and 0.0669 µM and 0.0342 µM |  |  | 
COc1ccc2cc(C(=O)/C=C/c3cc(OC)c(OC)c(OC)c3)ccc2c1 | 2.56 µM | 44.5 µM | 13.7 | > 50 µM | 21.9 | > 50 µM | 2.49 µM | 2.55 | 11 µM | 2.91 µM | > 50 µM | 5.86 µM | > 50 µM | 5.11 µM | 1.32 | > 50 µM | > 50 µM | > 50 µM | 13.7 µM | > 50 µM
O=C(Nc1ccc(N2CCNCC2)cc1)c1[nH]ncc1Nc1ncnc2sc3c(c12)CCC3 | 0.136 µM | 0.696 µM | 0.124 | 1.31 µM | 0.0302 | 1.91 µM | 0.115 µM | 0.199 | 1.8 µM | 0.0835 µM | 1.07 µM | 0.256 µM | 1.67 µM | 0.89 µM | 0.0638 |  | 0.852 µM | 0.472 µM | 2.76 µM | 3.53 µM
COc1ccc2c(c1)[nH]c(=O)c1c3cc(C)c(C)cc3cn21 | < 0.0185 µM | 1.32 µM | < 0.0134 | 0.0248 µM | 0.485 | 2.32 µM | < 0.01 µM | < 0.014 | 1.66 µM | < 0.0176 µM | 0.281 µM | < 0.01 µM | < 0.0143 µM | < 0.01 µM | < 0.0152 | 0.224 µM | 1.17 µM | 0.14 µM | 1.45 µM | 2.9 µM
CC(=O)Nc1ccc2c(c1)c(C1=C(c3cn(C)c4ccccc34)C(=O)NC1=O)cn2C | 1.65 µM | > 25 µM | 1.3 | > 25 µM | 0.807 | 12 µM | 0.926 µM | 1.63 | > 25 µM | 2.4 µM | 13.8 µM | 0.723 µM | 2.16 µM | 1.41 µM | 0.675 | > 17 µM | 1.66 µM | > 25 µM | > 25 µM | > 25 µM
COc1cc(O)c([C@@H]2C[C@H](CCc3ccc(O)cc3)O[C@H](c3ccc(O)cc3)C2)c(O)c1C(=O)/C=C/c1ccc(O)cc1 | 3.33 µM | 25.1 µM | 2.51 | 5.4 µM | 2.2 | 4.96 µM | 2.32 µM | 1.93 | 3.63 µM | 1.44 µM | 4.24 µM | 2.69 µM | 7.16 µM | 2.86 µM | 2.42 | 4.8 µM | 2.93 µM | 6.24 µM | 24.4 µM | 9.77 µM
COc1ccc(C(=O)/C(Br)=C/C(=O)O)cc1 | 25.2 µM | 275 µM and 246 µM | 15.1 | 34.4 µM and 54.2 µM |  | 93.7 µM and 93.6 µM | 18.8 µM | 18.1 | 53.2 µM and 53 µM | 21 µM | 98.5 µM and 86.5 µM | 35.6 µM and 22.7 µM | 133 µM and 116 µM | 27.3 µM | 19.1 | > 86 µM and 321 µM | 15.7 µM | 281 µM and 352 µM | 202 µM and 225 µM | 149 µM and 260 µM
COc1ccc(-c2nn3ncccc3c2-c2ccnc(Nc3ccc(Cl)c(C(F)(F)F)c3)n2)cc1 | 10.8 µM | > 25 µM | 12.7 | > 25 µM | 4.54 | 19.8 µM | 10.8 µM | 8.95 | > 25 µM | 10.9 µM | > 25 µM | 10.5 µM | > 25 µM | 11.6 µM | 17.6 | > 25 µM | 7.21 µM | > 25 µM | > 25 µM | > 25 µM
COc1cc(-c2nn(-c3ccc(NC(=O)c4ccc(Cl)c(Cl)c4)cc3)cc2-c2ccncc2)ccc1Cl | > 100 µM | > 100 µM | 3.62 | > 100 µM | > 100 | > 100 µM | 4.05 µM | 2.76 | > 100 µM | 5.29 µM | > 100 µM | > 100 µM | > 100 µM | > 100 µM | 18.7 | > 100 µM | 3.76 µM | > 100 µM | > 100 µM | > 100 µM
COc1cc(C2CC(c3ccc(C)cc3)=NN2C=O)ccc1Oc1ccnc2cc(Cl)ccc12 (stereo not given) | > 50 µM | > 50 µM | > 50 | > 50 µM | 9.1 | > 50 µM | > 50 µM | > 50 | > 50 µM | > 50 µM | > 50 µM | > 50 µM | > 50 µM | 11.3 µM | > 50 | > 50 µM | 2.9 µM | > 50 µM | > 50 µM | 23.5 µM
COc1ccc2c(c1)/C(=C\c1c(C)nc3sc(C)cn13)C(=O)N2C | 30.7 µM | > 100 µM | 3.42 | 49.8 µM | 7.42 | 37 µM | 1.83 µM | 4.4 | 26.2 µM | 3.76 µM | > 100 µM | 1.43 µM | 3.99 µM | 4.62 µM | 0.345 | > 100 µM | 1.78 µM | > 100 µM | 39 µM | 5.35 µM

Reference: PubChem BioAssay (NCI)
